Numbers after ± are expanded uncertainties.
Legend:
[1] = refractive index (Na D-line) (dimensionless); conditions: 298.15 K; 101.33 kPa; Liquid; Standard Abbe refractometry
[2] = 298.15 K; 101.33 kPa; Liquid; Vibrating tube method

refractive index [1] | mass density [2] [kg/m3] | SMILES
1.3701 ± 0.012 | 867.6 ± 16 | CC(=O)OC(C)C [1-methylethyl ethanoate]
1.375 ± 0.012 | 781.4 ± 16 | CC(C)O [propan-2-ol]
1.3325 ± 0.012 |  | O [water]

Source: the NIST ThermoML archive (doi:10.1021/acs.jced.8b00844)
